Legend:
NHDF (NB) cells = assay: Hyaluronic acid production by fibroblasts, ELISA; format: cell-based, human; conditions: for Hyaluronic acid production (% of control): highest value over 3, 10, 30, 100 and 300 μM, 5 days
Description: The amount of the hyaluronic acid production by fibroblasts was determined by ELISA. As a control, a group containing no peptide was used. NHDF (NB) cells were seeded in 24-well plates and cultured overnight (2×10^4 cells/500 μL per well). The culture medium used was Medium 106 (containing 1% FBS without growth supplements). Twenty hours after cell seeding, 500 μL of a solution of each peptide in the culture medium was added to each well to a final peptide concentration of 3, 10, 30, 100 or 300 μM. To control wells, 500 μL of the culture medium alone was added. The cells were cultured in a 5% CO2 incubator at 37° C. for 5 days. After the culture, the culture supernatant was transferred into a 1.5-mL tube and centrifuged at 15,000 rpm at 4° C. for 5 minutes, and the supernatant was harvested in a fresh tube. The amount of hyaluronic acid in the culture supernatant was determined using QnE Hyaluronic Acid (HA) ELISA Assay (Biotech Trading Partners) in accordance with the kit protocol. The percent hyaluronic acid production was calculated as the ratio (%) of the ELISA absorbance of each peptide addition group to that of the control group. The effect of promoting hyaluronic acid production was evaluated on the basis of the percent hyaluronic acid production.
The examination was conducted in the same manner as in Example 4 except that the percent hyaluronic acid production was determined as follows: the amount of hyaluronic acid was quantified from the ELISA calibration curve and the quantified value was used to calculate the ratio (%) of the amount of the hyaluronic acid production of each peptide addition group to that of the control group.

[1] = tested on: Normal human dermal fibroblasts (NHDF); assay: Fibroblast growth-promoting activity, Cell Counting Kit (WST-1); format: cell-based; conditions: for Fibroblast growth (% of control): NHDF, 2 days culture, WST-1
Description: The fibroblast growth-promoting activity of the peptides was determined using Cell Counting Kit (WST-1) (Dojindo Laboratories). As a control, a group containing no peptide was used. Normal human dermal fibroblasts (from newborns) (Kurabo Industries Ltd., hereinafter called NHDF) were seeded in 96-well plates (0.5×10^4 cells/100 μL per well). The culture medium used was Medium 106 (containing 1% FBS without growth supplements). About 3 hours after cell seeding, 100 μL of a solution of each peptide in the culture medium was added to a final peptide concentration of 0.3, 1, 3, 10, or 30 μM. To control wells, 100 μL of the culture medium alone was added. To blank wells containing no cells, 200 μL of the culture medium alone was added. The cells were cultured in a CO2 incubator for 2 days. After the culture, 20 μL of the WST-1 reagent was added to each well and the plates were allowed to stand in a CO2 incubator for about 2 to 4 hours. The absorbance at 450 nm and 620 nm was determined with a microplate reader (Wallac 1420 ARVOsx (program: WST-1)), and the measured values were corrected by the equation: OD450-OD620. The net OD450 was calculated by subtracting the mean OD450-OD620 of the blank wells from the OD450-OD620 of the test wells. The percent fibroblast growth was calculated as the ratio (%) of the net OD450 of each peptide addition group to that of the control group. The effect of promoting fibroblast growth was evaluated on the basis of the percent fibroblast growth.
The examination was conducted in the same manner as in Example 2 except that the concentration of each peptide was set at 3, 10, 30, 100 or 300 μM.

[2] = Example 5, 3 to 300 μM, ELISA calibration curve
[3] = amount quantified from ELISA calibration curve (Example 5)
[4] = at concentrations of 0.3 to 30 μM (Example 2)
[5] = highest value over 0.3, 1, 3, 10 and 30 μM
[6] = ratio of ELISA absorbance (Example 4)
[7] = at concentrations of 30 to 300 μM (Example 3)
[8] = highest value over 3, 10, 30, 100 and 300 μM
[9] = Example 4, 3 to 300 μM, ELISA absorbance ratio

Row | Substance | increase of hyaluronic acid production by fibroblasts (NHDF (NB) cells; [2]) | Hyaluronic acid production (% of control) (NHDF (NB) cells; [3]) | effect of promoting fibroblast growth [1, 4] | Fibroblast growth (% of control) [1, 5] | Hyaluronic acid production (% of control) (NHDF (NB) cells; [6]) | effect of promoting fibroblast growth [1, 7] | Fibroblast growth (% of control) [1, 8] | increase of hyaluronic acid production by fibroblasts (NHDF (NB) cells; [9])
1 | RLKR [OSK-22] | increased the amount of the hyaluronic acid production by fibroblasts | 101.1 % of control | – | – | – | – | – | –
2 | LKLIF (Ac-LKLIF-NH2) [OSK-3] | – | – | exhibited the effect of promoting fibroblast growth | 104.7 % of control | 79.9 % of control | – | – | –
3 | RLKR [OSK-18] (Ac-RLKR-NH2) | increased the amount of the hyaluronic acid production by fibroblasts | 131.9 % of control | – | – | – | – | – | –
4 | RLKRL [OSK-10] | increased the amount of the hyaluronic acid production by fibroblasts | 409.1 % of control | exhibited the effect of promoting fibroblast growth | 116.2 % of control | 198.2 % of control | exhibited the effect of promoting fibroblast growth | 149.9 % of control | increased the amount of the hyaluronic acid production by fibroblasts
5 | RLRKR (Ac-RLRKR-NH2) [OSK-13] | – | – | – | 99.3 % of control | 74.3 % of control | – | – | –
6 | LHRLK (Ac-LHRLK-NH2) [OSK-8] | – | – | – | 98.8 % of control | 110.5 % of control | – | – | increased the amount of the hyaluronic acid production by fibroblasts
7 | RLKRL [OSK-21] | increased the amount of the hyaluronic acid production by fibroblasts | 109.3 % of control | – | – | – | – | – | –
8 | RKRLK (Ac-RKRLK-NH2) [OSK-15] | – | – | exhibited the effect of promoting fibroblast growth | 102.9 % of control | 103.9 % of control | – | – | increased the amount of the hyaluronic acid production by fibroblasts
9 | KRLKR (Ac-KRLKR-NH2) [OSK-16] | – | – | exhibited the effect of promoting fibroblast growth | 106.1 % of control | 110.6 % of control | – | – | increased the amount of the hyaluronic acid production by fibroblasts
10 | LKR [OSK-23] | increased the amount of the hyaluronic acid production by fibroblasts | 113.7 % of control | – | – | – | – | – | –
11 | LRKRL (Ac-LRKRL-NH2) [OSK-14] | – | – | exhibited the effect of promoting fibroblast growth | 106.8 % of control | 123.6 % of control | – | – | increased the amount of the hyaluronic acid production by fibroblasts
12 | HRLKR [OSK-20] | – | 94.0 % of control | – | – | – | – | – | –
13 | KLIFL (Ac-KLIFL-NH2) [OSK-4] | – | – | exhibited the effect of promoting fibroblast growth | 102.6 % of control | 212.4 % of control | – | – | increased the amount of the hyaluronic acid production by fibroblasts
14 | LIFLH (Ac-LIFLH-NH2) [OSK-5] | – | – | – | 97.6 % of control | 65.6 % of control | – | – | –
15 | FLHRL (Ac-FLHRL-NH2) [OSK-7] | – | – | – | 96.8 % of control | 75.2 % of control | – | – | –
16 | LKR [OSK-19] (Ac-Leu-Lys-Arg-NH2) | increased the amount of the hyaluronic acid production by fibroblasts | 117.6 % of control | – | – | – | – | – | –
17 | ELKLIFLHRLKRLRKRLKRK (Ac-ELKLIFLHRLKRLRKRLKRK-NH2) [OSK-1] | increased the amount of the hyaluronic acid production by fibroblasts | 2715.8 % of control | exhibited the effect of promoting fibroblast growth | 146.4 % of control | – | exhibited the effect of promoting fibroblast growth | 144.9 % of control | –
18 | KRLRK (Ac-KRLRK-NH2) [OSK-12] | – | – | exhibited the effect of promoting fibroblast growth | 100.3 % of control | 72.0 % of control | – | – | –
19 | ELKLI (Ac-ELKLI-NH2) [OSK-2] | – | – | – | 99.7 % of control | 184.0 % of control | – | – | increased the amount of the hyaluronic acid production by fibroblasts
20 | RLKRK (Ac-RLKRK-NH2) [OSK-17] | – | – | exhibited the effect of promoting fibroblast growth | 104.2 % of control | 81.8 % of control | – | – | –
21 | LKRLR [OSK-11] | increased the amount of the hyaluronic acid production by fibroblasts | 255.0 % of control | exhibited the effect of promoting fibroblast growth | 112.5 % of control | 112.1 % of control | exhibited the effect of promoting fibroblast growth | 158.5 % of control | increased the amount of the hyaluronic acid production by fibroblasts

From US10463592B2, “Peptide with anti-aging effect and use thereof” (Osaka University, priority 2013, dated 2019)
